Test results reported in article PMC6131718 (Journal of medicinal chemistry, 2018).
≈ marks a conversion by molar mass, not a printed value. Read-outs that look alike come from different tables or passages of the source.

Columns and labels:
[1] = biological target: OXA-23 (Acinetobacter baumannii, UniProt Q9L4P2); experiment: Steady-state inhibitor kinetics; format: biochemical, A. baumannii
[2] = biological target: T1, KPC-2 (Klebsiella pneumoniae, UniProt Q9F663); experiment: biochemical
[3] = biological target: OXA-24/40 (Acinetobacter baumannii, UniProt Q8RLA6); experiment: biochemical; parameters: species or system A. baumannii
[4] = test system: KPC-2 (donor) and TEM-1 (recipient); experiment: Acyl-transfer ESI-MS, KPC-2 donor to TEM-1 recipient; format: biochemical; conditions: equimolar KPC-2:DBO preincubated 1 min, then equimolar TEM-1
[5] = biological target: ADC-7 (Acinetobacter baumannii, UniProt Q6DRA1); experiment: Steady-state inhibitor kinetics; format: biochemical; conditions: for lower Ki app values compared to those of avibactam and relebactam: ADC-7
[6] = test system: A. baumannii SL04; experiment: MIC against clinical isolate A. baumannii SL04; format: cell-based
[7] = test system: Enterobacteriaceae that expressed blaOXA-48 or blaOXA-48 mutants; format: cell-based; conditions: for MIC: Escherichia coli, E. coli Jefferson 17,75 OXA-48, agent alone
[8] = biological target: PDC-3 (Pseudomonas aeruginosa, UniProt P24735, T105A); format: biochemical
[9] = biological target: CMY-2; conditions: cited from earlier work
[10] = test system: A. baumannii NCTC 13301; experiment: MIC against A. baumannii NCTC 13301; format: cell-based
[11] = test system: A. baumannii NCTC 13303; experiment: MIC against A. baumannii NCTC 13303; format: cell-based
[12] = test system: A. baumannii AADC; experiment: MIC, broth microdilution, A. baumannii ΔblaADC parent strain; format: cell-based; conditions: Acinetobacter baumannii
[13] = test system: A. baumannii ΔblaADC with pWH1266 blaOXA-24/40; format: cell-based; conditions: Acinetobacter baumannii, β-lactam alone; A. baumannii ΔblaADC pWH1266 blaOXA-24
[14] = test system: A. baumannii ΔblaADC with pWH1266 blaOXA-23; experiment: MIC, broth microdilution, isogenic A. baumannii ΔblaADC with pWH1266 blaOXA-23; format: cell-based; conditions: Acinetobacter baumannii, β-lactam alone; A. baumannii ΔblaADC pWH1266 blaOXA-23
[15] = test system: E. coli DH10B expressing a single β-lactamase; format: cell-based; conditions: Escherichia coli, agent alone
[16] = test system: E. coli DH10B with pBR322-catI-blaKPC-2; experiment: MIC, broth microdilution, isogenic E. coli DH10B with pBR322-catI-blaKPC-2; format: cell-based; conditions: Escherichia coli, β-lactam alone; E. coli DH10B pBR322-catI-blaKPC-2
[17] = test system: Escherichia coli DH10B (control); experiment: MIC, broth microdilution, Escherichia coli DH10B; format: cell-based
[18] = test system: A. baumannii strains (NCTC 13301, NCTC 13303, SL46); experiment: Murine peritonitis model, summary over the three A. baumannii strains; format: in vivo; conditions: supra-therapeutic doses, 6.25 mg/kg administered as two doses
[19] = biological target: T1, KPC-2; conditions: at 15 min; cited from earlier work
[20] = test system: TEM-1 (donor) and CTX-M-15 (recipient); conditions: cited from earlier work
[21] = test system: A. baumannii SL46; experiment: MIC against A. baumannii SL46; format: cell-based; conditions: Acinetobacter baumannii
[22] = E. coli DH10B pBC SIC (−) KPC-2
[23] = E. coli DHIOB pBC SIC (−) PDC-3
[24] = Acinetobacter baumannii, NCTC13301
[25] = Acinetobacter baumannii, NCTC13303

`N#C[C@@H]1CC[C@@H]2CN1C(=O)N2OS(=O)(=O)[O-].[Na+]` [Compound 3, (2S,5R)-1,6-Diazabicyclo[3.2.1]octane-2-carbonitrile-7-oxo-6-(sulfooxy)-monosodium Salt] gave a Kd [1] of 0.029 ± 0.004 µM, a Ki [1] of 8 ± 1 µM and a Kd [2] of 0.0019 ± 0.0002 µM. It also gave a Ki [2] of 0.32 ± 0.03 µM, a Kd [3] of 0.042 ± 0.006 µM and a Ki [3] of 5 ± 0.5 µM. For the same compound, the “time for transfer from KPC-2 to TEM-1” value [4] was no more than 15 s, the Kd [5] was 0.053 ± 0.007 µM and the Ki [5] was 8 ± 0.8 µM.

`O=C(NNC(=O)[C@@H]1CC[C@@H]2CN1C(=O)N2OS(=O)(=O)O)[C@@H]1CCCNC1` [Compound 2, (2S,5R)-6-Sulfooxy-7-oxo-2-[((3R)-piperidine-3-carbonyl)hydrazinocarbonyl]-1,6-diazabicyclo[3.2.1]octane] showed an MIC ([6]; Acinetobacter baumannii, SL04) of no less than 512 µg/mL, a Ki [1] greater than 100 µM and an MIC [7] greater than 16 µg/mL. For the same compound, the Ki [3] was greater than 100 µM, the “lower Ki app values compared to those of avibactam and relebactam” value (from here on “lower Ki app values compared to those”) [8] was 18–25 fold and the “time required for transfer from KPC-2 to TEM-1” value [4] was 5 min. For the same compound, the “lower Ki app values compared to those” value [5] was 3–8 fold.

In the case of `C[C@]1(Cn2ccnn2)[C@H](C(=O)O)N2C(=O)C[C@H]2S1(=O)=O` [tazobactam], the Ki [9] is given as 40 µM.

In the case of colistin, the MIC ([6]; A. baumannii SL04 carrying blaOXA-23 and blaOXA-51) is reported as 2 µg/mL, the MIC ([10]; A. baumannii NCTC 13301, 3 at a fixed 8 μg/mL, cefepime-2 at 1:1 ratio) is reported as 1 µg/mL and the MIC ([11]; A. baumannii NCTC 13303, 3 at a fixed 8 μg/mL, cefepime-2 at 1:1 ratio) is reported as 0.5 µg/mL.

`C[C@@H](O)[C@H]1C(=O)N2C(C(=O)O)=C(S[C@@H]3CN[C@H](C(=O)N(C)C)C3)[C@H](C)[C@H]12` [meropenem] gave an MIC [12] of less than 0.12 µg/mL, an MIC [13] of no less than 8 µg/mL and an MIC [14] of no less than 8 µg/mL. It also gave an MIC [15, 22] of less than 0.12 µg/mL, an MIC [15, 23] of less than 0.12 µg/mL and an MIC [10, 24] of 32 µg/mL (≈ 83.4 µM). It also gave an MIC [11, 25] of 256 µg/mL (≈ 668 µM), an MIC [16] of no less than 8 µg/mL and an MIC [17] of less than 0.12 µg/mL.

For `CN(C)c1cc(NC(=O)CNC(C)(C)C)c(O)c2c1C[C@H]1C[C@H]3[C@H](N(C)C)C(O)=C(C(N)=O)C(=O)[C@@]3(O)C(O)=C1C2=O` [tigecycline], the “protection of infected mice” value [18] was “failed to protect infected mice”, the MIC [10, 24] was 1 µg/mL (≈ 1.71 µM) and the MIC [11, 25] was 1 µg/mL (≈ 1.71 µM).

Compound `O=C(NNC(=O)[C@@H]1CC[C@@H]2CN1C(=O)N2OS(=O)(=O)O)[C@@H]1CCNC1` [Compound 1, (2S,5R)-6-Sulfooxy-7-oxo-2-[((3R)-pyrrolidine-3-carbonyl)hydrazinocarbonyl]-1,6-diazabicyclo[3.2.1]octane] has a Ki [1] greater than 100 µM, an MIC [7] greater than 16 µg/mL and a Ki [3] greater than 100 µM. For the same compound, the “lower Ki app values compared to those” value [8] was 18–25 fold, the “time required for transfer from KPC-2 to TEM-1” value [4] was 5 min and the “lower Ki app values compared to those” value [5] was 3–8 fold.

For `O=C(O)[C@H]1/C(=C/CO)O[C@@H]2CC(=O)N21` [clavulanic acid], the “turnover number (tn)” value [19] is given as 2,500.

For `NC(=O)[C@@H]1CC[C@@H]2CN1C(=O)N2OS(=O)(=O)O` [avibactam], the “time of maximum transfer from TEM-1 to CTX-M-15” value [20] is given as 30 min.

With `O.O=C(NC1CCNCC1)[C@@H]1CC[C@@H]2CN1C(=O)N2OS(=O)(=O)O` [relebactam] the Ki [1] was greater than 100 µM, the “restoration of susceptibility to cefepime and meropenem” value ([7]; clinical isolates of Enterobacteriaceae expressing blaOXA-48 or mutants) was “less effective” and the Ki [3] was greater than 100 µM.

Work on `CO/N=C(\C(=O)N[C@@H]1C(=O)N2C(C(=O)[O-])=C(C[N+]3(C)CCCC3)CS[C@H]12)c1csc(N)n1` [cefepime] yielded an MIC [21] greater than 512 µg/mL, an MIC [15, 22] of 0.5 µg/mL (≈ 1.04 µM) and an MIC ([15]; E. coli DHIOB pBC SIC (−) OXA-48) of less than 0.12 µg/mL. It also gave an MIC [15, 23] of less than 0.12 µg/mL, an MIC [11, 25] of 64 µg/mL (≈ 133 µM) and an MIC [17] of less than 0.12 µg/mL.
